For data set [1], the system named is Cotton Aphid (aphis gossypii), mixed life stages. The data set is described as follows: Cotton aphid (Aphis gossypii), mixed life stages, leaf-dip test on cotton plants. It is filed as in vivo. Particulars: 120 h, 300 ppm, infested cotton cotyledons dipped 3 seconds, after 5 days, read-out: mortality of cotton aphid in comparison with untreated controls. The protocol: (§1) The active compounds were formulated in a mixture of 50 vol.-% acetone:50 vol.-% water. A nonionic surfactant (Kinetic®) was included in the solution at a volume of 0.01% v/v.
(§2) In the following tests, the formulated solutions of the active compounds were diluted to an active ingredient concentration of 300 ppm and the diluted solutions were applied in the below mentioned tests.
II.1 Cotton Aphid (aphis gossypii), Mixed Life Stages
Cotton plants at the cotyledon stage were infested prior to treatment by placing a heavily infested leaf from the main aphid colony on top of each cotyledon. The aphids were allowed to transfer overnight and the host leaf was removed. The infested cotyledons were then dipped and agitated in the test solution for 3 seconds and allowed to dry in a fume hood. Test plants were maintained under fluorescent lighting in a 24-hr photoperiod at 25° C. and 20-40% relative humidity. Aphid mortality on the treated plants, relative to mortality on untreated check plants, was determined after 5 days.

Another data set concerns Bean Aphid (Aphis fabae). The data set is described as follows: Bean aphid (Aphis fabae), plant-dip test on nasturtium plants. The class given is in vivo. Particulars: 72 h, 300 ppm, infested nasturtium plants dipped, after 3 days, read-out: mortality of bean aphid in comparison with untreated controls. The protocol: as §1, §2
11.3 Bean Aphid (Aphis fabae)
Nasturtium plants grown in Metro mix in the 1st leaf-pair stage (variety ‘Mixed Jewel’) were infested with approximately 2-30 laboratory-reared aphids by placing infested cut plants on top of the test plants. The cut plants were removed after 24 hr. Each plant was dipped into the test solution to provide complete coverage of the foliage, stem, protruding seed surface and surrounding cube surface and allowed to dry in the fume hood. The treated plants were kept at about 25° C. with continuous fluorescent light. Aphid mortality is determined after 3 days.

For data set [2], the system named is Green Peach Aphid (Myzus persicae), mixed life stages. The data set is described as follows: Green peach aphid (Myzus persicae), mixed life stages, leaf-dip test on bell pepper plants. It is filed as in vivo. Particulars: 120 h, 300 ppm, infested bell pepper leaves dipped 3 seconds, after 5 days, read-out: mortality of green peach aphid in comparison with untreated controls. Here is the method: as §1, §2
II.2 Green Peach Aphid (Myzus persicae), Mixed Life Stages
Bell pepper plants at the first true-leaf stage were infested prior to treatment by placing heavily infested leaves from the main aphid colony on top of the treatment plants. The aphids were allowed to transfer overnight to accomplish an infestation of 30-40 aphids per plant and the host leaves were removed. The infested leaves of the test plants were then dipped and agitated in the test solution for 3 seconds and allowed to dry in a fume hood. Test plants were maintained under fluorescent lighting in a 24-hr photoperiod at 25° C. and 20-40% relative humidity. Aphid mortality on the treated plants, relative to mortality on untreated check plants, was determined after 5 days.

Structures are written as SMILES.

As usually defined, the mortality is the percentage killed. As to `C#CCN(C(=O)C(F)(F)F)S(=O)(=O)c1cccc(C)c1C#N` [Example 11], the mortality at 300 ppm (in data set [1]; with Bean Aphid (Aphis fabae); in data set [2]) was at least 86% in each case.
For the molecule `Cc1cccc(S(=O)(=O)/N=C/N(C)C)c1C#N` [Example 35, 2-Cyano-3-methyl-N-dimethylaminomethylene-benzenesulfonamide], the mortality at 300 ppm (in data set [1]; in the data set on Bean Aphid (Aphis fabae); in data set [2]) was at least 86% each time.
The melting point is the temperature of the solid-liquid transition. In turn, `Cc1cccc(S(=O)(=O)n2cncn2)c1C#N` [Example 47, 2-Methyl-6-([1.2.4]-triazole-1-sulfonyl)-benzonitrile] showed a melting point of 142 to 144 °C.
As to `CCO/C(=N\S(=O)(=O)c1cccc(C)c1C#N)NC(C)C` [Example 29, N-(Isopropylamino-ethoxy-methylene)-2-cyano-3-methyl-benzenesulfonamide], the melting point fell in the range of 139 to 142 °C.
Molecule `Cc1cccc(S(=O)(=O)n2cccn2)c1C#N` [Example 46, 2-Methyl-6-(pyrazole-1-sulfonyl)-benzonitrile] had a melting point of 99 to 104 °C.

Source of the values: patent US20080300280A1, “Cyanobenzene Compounds for Combating Animal Pests” (priority 2005, published 2008).
